Data on 7 compounds can be found in patent US20040096845A1, “Peritoneal dialysates” (priority 2000, published 2004).

SMILES strings stand for the structures. Read-outs that look alike come from different tables or passages of the source.

For one data set, the system named is Collagen IV. Nature of the data set: Suppression of methylglyoxal-induced cross linking of collagen IV, by fluorescent intensity. Type of data set: biochemical.
Data set [1] can be described thus: Redox potential of cross linking suppressors. The format is physicochemical.
Data set [2] relates to AGE formation in peritoneum tissue. The settings on record: rat.
Setting [3] is: collagen IV + methylglyoxal in phosphate buffer solution, 37° C., 7 days, relative to Control 3 = 100.
Where [4] appears, read: Table 3, Control 3 (no suppressor) +282.

Take `S` [Sodium hydrosulfide]: the “Increase in FI %” value in the data set on Collagen IV is 10%. In addition, the “Redox potential (mV)” value in data set [1] was −620 mV.

In the case of `CNC(=S)NC` [Dimethylthiourea], the “Increase in FI %” value with Collagen IV is on record as 2%. Further, the “Redox potential (mV)” value in data set [1] was −40 mV.

Take `O=C(C[n+]1ccsc1)c1ccccc1.[Br-]` [N-Phenacyl thiazolium bromide]: the “AGE formation in peritoneum (in words)” value in data set [2] (solution (C), methylglyoxal + additive, 5 days) is listed as “did not form AGE”. The “AGE formed on peritoneum tissue through first 5 days infusion, after second 5 days infusion (in words)” value in data set [2] (solution (D), additive alone for second 5 days) was “disappeared”.

As for `O=S([O-])S(=O)(=O)[O-].[Na+].[Na+]` [Sodium metabisulfite], the “Increase in FI %” value in the data set with Collagen IV (setting [3]) is on record as 0%. Moreover, the “Redox potential (mV)” value in data set [1] (setting [4]) is “+17 mV”.

With `O=S([O-])([O-])=S.[Na+].[Na+]` [Sodium thiosulfate], in the data set on Collagen IV, the “Increase in FI %” value worked out at 67%. Moreover, in data set [1], the “Redox potential (mV)” value is “+40 mV”.

On to `O=S([O-])O.[Na+]` [Sodium bisulfite], for which the “Increase in FI %” value in the data set with Collagen IV came out at 0%. The “Redox potential (mV)” value in data set [1] is on record as −127 mV.

Regarding `O=S([O-])S(=O)[O-].[Na+].[Na+]` [Sodium hydrosulfite (Na2S2O4), Sodium hydrosulfite], the “Increase in FI %” value in the data set on Collagen IV (setting [3]) is recorded as 0%. In addition, in data set [1] (setting [4]), the “Redox potential (mV)” value is listed as −360 mV.
